# Where a SMILES comes first, the peptide text is derived from it. Where no end group is shown, it is not given here. The star is where a group is joined. AMC = Cc1cc(=O)oc2cc(N*)ccc12; Cbz = O=C(OCc1ccccc1)*
# Columns and labels:
# Assay type in all cases: biochemical
# [1] = biological target: T1, yrEnCL3 (EnCL3, E. nipponicum cathepsin L3) (Eudiplozoon nipponicum, UniProt A0A0K1L960); test: fluorogenic peptidase inhibition assay (AMC release); conditions: read-out: % remaining activity at 10 uM
# T1 construct: Pichia pastoris X-33 (pPICZalpha B), His-tag; full transcript 368 residues
# T1 sequence (A0A0K1L960 entry or part of it): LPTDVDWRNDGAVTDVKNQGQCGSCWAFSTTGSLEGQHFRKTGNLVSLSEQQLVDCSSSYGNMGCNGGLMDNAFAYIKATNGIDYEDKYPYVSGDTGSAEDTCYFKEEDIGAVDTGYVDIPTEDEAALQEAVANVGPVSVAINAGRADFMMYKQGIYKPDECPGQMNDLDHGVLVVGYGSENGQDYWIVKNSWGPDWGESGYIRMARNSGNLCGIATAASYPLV
# [2] = biological target: T2, yrEnCL1 (EnCL1, E. nipponicum cathepsin L1) (Eudiplozoon nipponicum, UniProt A0A0K1L8K1); test: as above; conditions: read-out: % remaining activity at 10 uM
# T2 construct: Expressed as pro-enzyme in Pichia pastoris X-33 (pPICZalpha B), His-tag, self-processed in medium to ~28 kDa partially processed form, partially purified; full transcript 317 residues
# T2 sequence (A0A0K1L8K1 entry or part of it): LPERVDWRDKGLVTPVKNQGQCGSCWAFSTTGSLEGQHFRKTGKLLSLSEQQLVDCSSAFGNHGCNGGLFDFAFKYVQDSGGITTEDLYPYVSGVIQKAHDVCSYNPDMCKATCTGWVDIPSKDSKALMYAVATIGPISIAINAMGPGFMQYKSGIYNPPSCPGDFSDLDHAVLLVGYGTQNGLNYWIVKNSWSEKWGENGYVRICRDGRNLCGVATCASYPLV
# [3] = biological target: T1, yrEnCL3 (EnCL3, E. nipponicum cathepsin L3); test: fluorogenic AMC release; conditions: 50 uM substrate, 2 mM DTT, citrate/phosphate buffer, pH optimum 6, 28 °C
# [4] = biological target: T3, yrEnCB (EnCB, E. nipponicum cathepsin B) (Eudiplozoon nipponicum, UniProt A0A2P1FSY4); test: fluorogenic AMC release; conditions: 50 uM substrate, 2 mM DTT, citrate/phosphate buffer, pH optimum 5, 28 °C
# T3 construct: Pichia pastoris X-33 (pPICZalpha B), His-tag; self-processed, deglycosylated with endoglycosidase F1, ~29 kDa; full transcript 382 residues
# T3 sequence (A0A2P1FSY4 entry or part of it): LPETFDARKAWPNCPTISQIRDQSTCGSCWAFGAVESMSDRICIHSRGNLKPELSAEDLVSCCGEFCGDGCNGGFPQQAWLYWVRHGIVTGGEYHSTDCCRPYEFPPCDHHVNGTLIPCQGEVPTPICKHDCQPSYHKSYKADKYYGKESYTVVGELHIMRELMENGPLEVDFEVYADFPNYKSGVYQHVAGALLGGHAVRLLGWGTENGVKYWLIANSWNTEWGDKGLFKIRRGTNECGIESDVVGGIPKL
# [5] = biological target: T2, yrEnCL1 (EnCL1, E. nipponicum cathepsin L1); test: fluorogenic AMC release; conditions: 50 uM substrate, 2 mM DTT, citrate/phosphate buffer, pH optimum 5.5, 28 °C; partially purified enzyme
compound,measurement,setting,value
"CCCNC(=O)[C@H]1O[C@@H]1C(=O)N[C@H](C(=O)N1CCC[C@H]1C(=O)O)[C@@H](C)CC [CA-074, N-[L-3-trans-propylcarbamoyloxirane-2-carbonyl]-Ile-Pro-OH]",remaining activity at 10 µM,[1],45 to 65%
same,remaining activity at 10 µM,[2],~70%
Cc1cc(=O)oc2cc(NC(=O)[C@H](CCCNC(=N)N)NC(=O)[C@H](Cc3ccccc3)NC(=O)OCc3ccccc3)ccc12 [Z-Phe-Arg-AMC] (Cbz-Phe-Arg-{AMC}),fluorogenic AMC release,[3],"Both EnCLs efficiently hydrolysed the FR substrate, and to a lesser extent the LR"
same,fluorogenic AMC release,[4],"The preferred substrate for yrEnCB was the FR, while RR was cleaved less efficiently"
same,fluorogenic AMC release,[5],"Both EnCLs efficiently hydrolysed the FR substrate, and to a lesser extent the LR"
RKLLW-NH2 [iCL],remaining activity at 10 µM,[1],~40%
Cc1cc(=O)oc2cc(NC(=O)[C@H](CCCNC(=N)N)NC(=O)[C@H](CC(C)C)NC(=O)OCc3ccccc3)ccc12 [Z-Leu-Arg-AMC],fluorogenic AMC release,[3],"Both EnCLs efficiently hydrolysed the FR substrate, and to a lesser extent the LR"
same,fluorogenic AMC release,[5],"Both EnCLs efficiently hydrolysed the FR substrate, and to a lesser extent the LR"

# — paper PMC5840727, “Cysteine peptidases of Eudiplozoon nipponicum: a broad repertoire of structurally assorted cathepsins L in contrast to the scarcity of cathepsins B in an invasive species of haematophagous monogenean of common carp” (Parasites & Vectors, 2018)
